This test has as its target T1, rTsCTL (TsCTL, Trichinella spiralis type C lectin) (Trichinella spiralis, UniProt A0A0V1BZI5).
T1 construct: gene T01_9679; N-terminal His-tag (pQE-80L), E. coli BL21 (DE3), Ni-NTA purified; 208 aa full length, 24 kDa; C-type lectin domain residues 24-156
As to the kind of experiment: inhibition of haemagglutination of mouse erythrocytes by rTsCTL. Format: biochemical. Conditions: rTsCTL 100 ug/mL; 2% mouse erythrocytes; room temperature, 1 h; Ca2+-dependent lectin; TBS pH 8.0; presumed carbohydrate recognition domain.

T1 sequence (A0A0V1BZI5 entry or part of it): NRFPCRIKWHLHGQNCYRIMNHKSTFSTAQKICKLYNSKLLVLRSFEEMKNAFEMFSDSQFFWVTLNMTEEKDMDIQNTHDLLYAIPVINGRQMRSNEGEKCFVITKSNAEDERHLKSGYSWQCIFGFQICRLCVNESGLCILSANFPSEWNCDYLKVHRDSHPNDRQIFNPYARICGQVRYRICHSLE

In the case of `OC[C@H]1OC(O)[C@@H](O)[C@@H](O)[C@@H]1O` (stereo partly shown) [mannose], the minimum inhibitory dose was determined as 100 mM.

(Values after PMC9580147, “A novel C-type lectin from Trichinella spiralis mediates larval invasion of host intestinal epithelial cells” (Veterinary Research, 2022).)
